In patent publication US20230128730A1, “OXYGEN IMPERMEABLE PORPHYRIN PHOTOSENSITIZER FILM COMPOSITION FOR APPLICATION TO PLANTS” (SUNCOR ENERGY INC., priority 2020, published 2023):

Tested on: Pseudomonas syringae pv. tabaci
Assay: In vitro effect of PP IX and modified PP IX on Pseudomonas syringae pv. tabaci, with and without chelating agent
Type: cell-based
Settings: 10 μM; illumination 1 hour, about 1000 μmol/m^2/s PAR; PBS control 8.7
Procedure: In this example, control of the gram-negative bacterial plant pathogen Pseudomonas syringae pv. tabaci with PP IX and modified PP IX was assessed, with and without chelating agents. Treatments were prepared in Phosphate Buffered Saline (PBS) in 96 well plates at desired concentrations. A bacterial suspension was inoculated into the PBS and incubated at 28° C. in the dark for 30 minutes. After 30 minutes, the 96 well plate was placed under illumination for 1 hour (at 21° C.). Following illumination, bacterial suspensions were serially diluted and 10 μL of each dilution is spread uniformly on Tryptic Soy Agar (TSA) plates and placed in the dark in an incubator at 28° C. for 48 hours. After 48 hours, bacterial colonies were counted, and the results were log transformed (log colony forming units (CFU)/mL). The relative inactivation was determined by taking the difference between log CFU(PBS control) and log CFU(treatments). Sample Illumination was provided by LED lights (Heliospectra RX30) emitting about 1000 μmol/m^2/s photosynthetically active radiation (PAR).

Protoporphyrin IX disodium salt [PP IX disodium salt]
log CFU/ml: 7.4 log CFU/ml
